# In ChEMBL document CHEMBL1212923, “Synthesis and in vivo evaluation of phenethylpiperazine amides: selective 5-hydroxytryptamine(2A) receptor antagonists for the treatment of insomnia” (J Med Chem, 2010):
# Activity calls are given as the source filed them. No cut-off for these calls is given here.
# Legend:
# Rattus norvegicus [1] = test: Toxicity in telemeterized rats assessed as effect on hemodynamics at 10 to 30 mg/kg; assay type: organism-based; set-up: dose 10-30 mg/kg; conditions: in vivo
# [2] = Oral bioavailability in mouse at 3 mg/kg relative to 2 mg/kg, iv dose; assay type: ADME, organism-based; conditions: in vivo
# Rattus norvegicus [3] = test: Cardiotoxicity in telemeterized rat assessed as change in ECG parameter at 10 to 30 mg/kg; assay type: toxicity, organism-based; set-up: dose 10-30 mg/kg; conditions: in vivo
# [4] = target: Voltage-gated inwardly rectifying potassium channel KCNH2 (Homo sapiens, UniProt Q12809)
# Chain of Voltage-gated inwardly rectifying potassium channel KCNH2 (Q12809 whole entry): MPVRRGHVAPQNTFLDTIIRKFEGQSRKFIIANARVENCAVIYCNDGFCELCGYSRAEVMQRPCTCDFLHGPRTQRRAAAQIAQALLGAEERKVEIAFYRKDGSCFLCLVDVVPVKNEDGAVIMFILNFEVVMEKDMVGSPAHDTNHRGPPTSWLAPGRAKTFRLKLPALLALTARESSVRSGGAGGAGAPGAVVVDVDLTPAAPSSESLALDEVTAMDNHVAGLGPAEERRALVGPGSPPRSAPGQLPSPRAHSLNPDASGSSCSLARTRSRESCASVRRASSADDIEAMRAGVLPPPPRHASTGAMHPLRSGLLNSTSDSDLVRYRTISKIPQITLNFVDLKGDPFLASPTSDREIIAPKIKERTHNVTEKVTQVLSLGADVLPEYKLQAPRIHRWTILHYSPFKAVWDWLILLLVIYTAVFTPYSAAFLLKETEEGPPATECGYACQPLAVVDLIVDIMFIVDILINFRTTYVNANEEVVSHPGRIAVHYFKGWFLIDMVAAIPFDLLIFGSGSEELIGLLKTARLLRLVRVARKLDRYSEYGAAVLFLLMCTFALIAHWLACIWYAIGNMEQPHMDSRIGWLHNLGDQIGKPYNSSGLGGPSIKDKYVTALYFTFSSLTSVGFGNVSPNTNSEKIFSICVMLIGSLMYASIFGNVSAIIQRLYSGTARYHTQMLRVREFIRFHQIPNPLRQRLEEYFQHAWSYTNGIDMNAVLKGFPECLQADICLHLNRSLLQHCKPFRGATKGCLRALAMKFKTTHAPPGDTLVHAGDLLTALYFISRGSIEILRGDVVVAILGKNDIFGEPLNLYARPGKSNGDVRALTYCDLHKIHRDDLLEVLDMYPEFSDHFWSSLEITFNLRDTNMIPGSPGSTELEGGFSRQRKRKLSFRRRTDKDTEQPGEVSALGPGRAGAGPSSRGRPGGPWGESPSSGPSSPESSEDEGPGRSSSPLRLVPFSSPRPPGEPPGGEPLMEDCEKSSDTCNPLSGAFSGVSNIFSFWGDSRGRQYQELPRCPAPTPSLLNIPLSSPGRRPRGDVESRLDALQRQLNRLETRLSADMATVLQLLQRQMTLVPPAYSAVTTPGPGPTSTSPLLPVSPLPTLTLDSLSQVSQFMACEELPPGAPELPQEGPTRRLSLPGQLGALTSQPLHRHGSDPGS
# Description: Inhibition of human ERG by patch clamp electrophysiology assay
# Cytochrome P450 1A2 = target: T1, Cytochrome P450 1A2 (Homo sapiens, UniProt P05177); test: Inhibition of CYP1A2 in human liver microsomes; assay type: ADME, Microsome
# T1 sequence (P05177 whole entry): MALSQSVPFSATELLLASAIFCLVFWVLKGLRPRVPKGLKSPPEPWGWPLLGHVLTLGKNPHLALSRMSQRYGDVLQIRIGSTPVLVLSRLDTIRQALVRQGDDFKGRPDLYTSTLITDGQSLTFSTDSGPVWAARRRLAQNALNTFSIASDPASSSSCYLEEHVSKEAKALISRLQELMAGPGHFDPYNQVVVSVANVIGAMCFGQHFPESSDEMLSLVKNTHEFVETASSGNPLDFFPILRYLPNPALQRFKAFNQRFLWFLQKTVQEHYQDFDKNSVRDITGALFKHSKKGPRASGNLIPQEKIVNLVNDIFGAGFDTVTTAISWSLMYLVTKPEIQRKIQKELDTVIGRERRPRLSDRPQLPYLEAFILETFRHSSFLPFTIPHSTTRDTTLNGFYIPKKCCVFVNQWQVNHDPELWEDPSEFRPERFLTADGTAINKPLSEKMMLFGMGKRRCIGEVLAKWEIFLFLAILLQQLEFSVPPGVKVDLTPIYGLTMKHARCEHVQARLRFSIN
# Rattus norvegicus [5] = test: Effect on behavioral activity in po dosed Sprague-Dawley rat assessed as increase in sleep consolidation after 5 hrs; assay type: functional, organism-based
# Rattus norvegicus [6] = test: Inhibition of DOI-induced hypolocomotion in Sprague-Dawley rat at 0.3 mg/kg, po administered 25 mins before DOI challenge measured after 10 mins; assay type: functional, organism-based; set-up: dose 0.3 mg/kg
# [7] = AUClast in monkey at 3 mg/kg, po; assay type: ADME, organism-based, Macaca mulatta; set-up: time 0 - last, dose 3 mg/kg, route oral; conditions: rhesus monkey, plasma
# Cytochrome P450 2C19 = Cytochrome P450 2C19 (Homo sapiens, UniProt P33261); test: Inhibition of CYP2C19 in human liver microsomes; assay type: ADME, Microsome
# Chain of Cytochrome P450 2C19 (P33261 whole entry): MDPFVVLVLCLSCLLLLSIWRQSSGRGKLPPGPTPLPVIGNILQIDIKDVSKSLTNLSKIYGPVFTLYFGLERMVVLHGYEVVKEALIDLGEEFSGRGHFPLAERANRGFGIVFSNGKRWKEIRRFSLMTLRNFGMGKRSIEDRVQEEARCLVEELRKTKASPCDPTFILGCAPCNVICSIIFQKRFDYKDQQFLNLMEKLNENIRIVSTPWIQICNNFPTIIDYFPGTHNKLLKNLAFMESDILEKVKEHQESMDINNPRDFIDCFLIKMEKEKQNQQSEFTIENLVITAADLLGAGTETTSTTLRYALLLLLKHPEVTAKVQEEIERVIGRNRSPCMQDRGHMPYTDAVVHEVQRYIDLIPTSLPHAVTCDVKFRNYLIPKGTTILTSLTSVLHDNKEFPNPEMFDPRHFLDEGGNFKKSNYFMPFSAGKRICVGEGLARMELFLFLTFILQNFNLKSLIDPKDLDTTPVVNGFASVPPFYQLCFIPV
# [8] = Oral bioavailability in Sprague-Dawley rat at 3 mg/kg relative to 2 mg/kg, iv dose; assay type: ADME, organism-based; conditions: in vivo
# [9] = Cmax in dog at 3 mg/kg, po; assay type: ADME, organism-based, Canis lupus familiaris; set-up: dose 3 mg/kg, route oral; conditions: in vivo
# [10] = Drug level in Sprague-Dawley rat plasma at 0.3 mg/kg, po after 0.75 hrs; assay type: ADME, organism-based; set-up: dose 0.3 mg/kg, route oral; conditions: read-out: Drug uptake
# [11] = Half life in mouse at 3 mg/kg, po; assay type: ADME, organism-based; set-up: dose 3 mg/kg, route oral; conditions: in vivo
# [12] = Toxicity in mouse assessed as maximum tolerated dose; assay type: organism-based; conditions: in vivo
# [13] = AUClast in dog at 3 mg/kg, po; assay type: ADME, organism-based, Canis lupus familiaris; set-up: dose 3 mg/kg, route oral, time 0 - last; conditions: plasma
# Cytochrome P450 2C9 = Cytochrome P450 2C9 (Homo sapiens, UniProt P11712); test: Inhibition of CYP2C9 in human liver microsomes; assay type: ADME, Microsome
# Chain of Cytochrome P450 2C9 (P11712 whole entry): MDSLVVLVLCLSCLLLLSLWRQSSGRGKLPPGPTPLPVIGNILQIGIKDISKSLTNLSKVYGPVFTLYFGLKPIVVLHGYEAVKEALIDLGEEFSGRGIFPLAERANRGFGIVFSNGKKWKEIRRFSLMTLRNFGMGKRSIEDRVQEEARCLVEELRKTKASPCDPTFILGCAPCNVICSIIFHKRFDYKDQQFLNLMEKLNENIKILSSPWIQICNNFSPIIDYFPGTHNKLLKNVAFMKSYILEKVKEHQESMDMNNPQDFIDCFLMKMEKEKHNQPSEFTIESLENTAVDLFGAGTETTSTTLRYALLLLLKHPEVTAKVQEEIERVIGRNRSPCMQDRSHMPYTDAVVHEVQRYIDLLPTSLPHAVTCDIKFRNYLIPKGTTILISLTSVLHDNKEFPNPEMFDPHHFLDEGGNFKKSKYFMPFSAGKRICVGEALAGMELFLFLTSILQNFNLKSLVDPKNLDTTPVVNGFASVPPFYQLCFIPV
# [14] = target: 5-hydroxytryptamine receptor 2A (Rattus norvegicus, UniProt P14842); test: Binding affinity to rat 5HT2A receptor
# Chain of 5-hydroxytryptamine receptor 2A (Rattus norvegicus, UniProt P14842) (P14842 whole entry): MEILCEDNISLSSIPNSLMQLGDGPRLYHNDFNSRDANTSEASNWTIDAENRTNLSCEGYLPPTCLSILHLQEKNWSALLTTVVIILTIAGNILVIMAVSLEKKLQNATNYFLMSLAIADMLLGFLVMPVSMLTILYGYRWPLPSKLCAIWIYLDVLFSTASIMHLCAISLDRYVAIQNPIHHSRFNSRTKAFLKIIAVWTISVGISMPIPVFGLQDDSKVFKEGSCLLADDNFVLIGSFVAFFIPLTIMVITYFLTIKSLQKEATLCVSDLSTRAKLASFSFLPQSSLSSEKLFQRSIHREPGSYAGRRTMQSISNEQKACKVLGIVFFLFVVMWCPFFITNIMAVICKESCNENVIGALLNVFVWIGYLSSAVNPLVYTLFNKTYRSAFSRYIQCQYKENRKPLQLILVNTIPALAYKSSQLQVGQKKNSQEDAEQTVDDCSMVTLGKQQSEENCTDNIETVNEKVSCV
# [15] = Cmax in monkey at 3 mg/kg, po; assay type: ADME, organism-based, Macaca mulatta; set-up: dose 3 mg/kg, route oral; conditions: rhesus monkey, in vivo
# [16] = Cmax in mouse at 3 mg/kg, po; assay type: ADME, organism-based; set-up: dose 3 mg/kg, route oral; conditions: in vivo
# [17] = Ratio of drug level in brain to plasma in Sprague-Dawley rat at 3 mg/kg, po after 0.75 hrs; assay type: ADME, organism-based; set-up: dose 3 mg/kg, route oral
# [18] = Ratio of drug level in brain to plasma in Sprague-Dawley rat at 0.3 mg/kg, po after 0.75 hrs; assay type: ADME, organism-based; set-up: dose 0.3 mg/kg, route oral
# [19] = target: T2, 5-hydroxytryptamine receptor 2C (Homo sapiens, UniProt P28335); assay type: cell-based, HEK293
# T2 sequence (P28335 whole entry): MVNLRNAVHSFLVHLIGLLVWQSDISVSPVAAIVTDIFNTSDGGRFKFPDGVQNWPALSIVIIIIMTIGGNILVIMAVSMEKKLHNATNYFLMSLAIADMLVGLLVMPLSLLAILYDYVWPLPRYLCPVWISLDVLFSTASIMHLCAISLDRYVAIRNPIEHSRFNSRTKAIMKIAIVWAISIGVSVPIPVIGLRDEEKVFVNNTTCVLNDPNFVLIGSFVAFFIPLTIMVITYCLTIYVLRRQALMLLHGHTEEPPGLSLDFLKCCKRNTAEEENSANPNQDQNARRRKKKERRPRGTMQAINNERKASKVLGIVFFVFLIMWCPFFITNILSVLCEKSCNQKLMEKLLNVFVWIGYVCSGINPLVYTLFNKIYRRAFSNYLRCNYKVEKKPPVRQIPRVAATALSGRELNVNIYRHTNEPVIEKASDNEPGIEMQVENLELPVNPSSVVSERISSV
# [20] = Oral bioavailability in monkey at 3 mg/kg relative to 2 mg/kg, iv dose; assay type: ADME, organism-based, Macaca mulatta; conditions: rhesus monkey, in vivo
# [21] = target: 5-hydroxytryptamine receptor 2A (Macaca mulatta, UniProt P50128); test: Binding affinity to monkey 5HT2A receptor
# Chain of 5-hydroxytryptamine receptor 2A (Macaca mulatta, UniProt P50128) (P50128 whole entry): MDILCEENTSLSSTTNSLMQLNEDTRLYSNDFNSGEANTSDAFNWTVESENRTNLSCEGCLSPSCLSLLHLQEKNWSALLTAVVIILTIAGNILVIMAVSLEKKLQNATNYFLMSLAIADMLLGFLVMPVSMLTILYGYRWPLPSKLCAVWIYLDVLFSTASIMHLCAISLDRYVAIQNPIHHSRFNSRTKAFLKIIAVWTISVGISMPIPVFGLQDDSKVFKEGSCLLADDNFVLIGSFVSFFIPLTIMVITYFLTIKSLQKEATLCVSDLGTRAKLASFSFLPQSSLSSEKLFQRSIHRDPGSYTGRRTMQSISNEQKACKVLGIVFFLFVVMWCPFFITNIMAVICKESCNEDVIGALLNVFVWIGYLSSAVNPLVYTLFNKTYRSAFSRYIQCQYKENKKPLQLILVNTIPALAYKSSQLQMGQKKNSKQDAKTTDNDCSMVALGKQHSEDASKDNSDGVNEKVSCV
# [22] = Total clearance in Sprague-Dawley rat at 2 mg/kg, iv; assay type: ADME, organism-based; set-up: dose 2 mg/kg, route intravenous; conditions: in vivo
# Cytochrome P450 2D6 = Cytochrome P450 2D6 (Homo sapiens, UniProt P10635); test: Inhibition of CYP2D6 in human liver microsomes; assay type: ADME, Microsome
# Chain of Cytochrome P450 2D6 (P10635 whole entry): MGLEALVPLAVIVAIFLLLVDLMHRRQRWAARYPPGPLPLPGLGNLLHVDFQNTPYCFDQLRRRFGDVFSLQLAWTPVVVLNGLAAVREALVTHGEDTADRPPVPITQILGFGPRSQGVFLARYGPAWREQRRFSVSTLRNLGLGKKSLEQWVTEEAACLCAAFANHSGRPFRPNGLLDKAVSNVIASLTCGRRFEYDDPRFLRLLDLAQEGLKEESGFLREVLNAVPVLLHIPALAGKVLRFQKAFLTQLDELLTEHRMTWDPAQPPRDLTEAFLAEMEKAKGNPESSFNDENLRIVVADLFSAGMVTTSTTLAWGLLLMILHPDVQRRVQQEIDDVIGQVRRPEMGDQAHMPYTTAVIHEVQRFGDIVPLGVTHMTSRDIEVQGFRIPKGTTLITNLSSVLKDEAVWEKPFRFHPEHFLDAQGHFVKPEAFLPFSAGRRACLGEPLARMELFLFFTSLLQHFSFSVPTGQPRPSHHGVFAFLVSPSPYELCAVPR
# [23] = target: 5-hydroxytryptamine receptor 2A (Homo sapiens, UniProt P28223); test: biochemical
# Chain of 5-hydroxytryptamine receptor 2A (Homo sapiens, UniProt P28223) (P28223 whole entry): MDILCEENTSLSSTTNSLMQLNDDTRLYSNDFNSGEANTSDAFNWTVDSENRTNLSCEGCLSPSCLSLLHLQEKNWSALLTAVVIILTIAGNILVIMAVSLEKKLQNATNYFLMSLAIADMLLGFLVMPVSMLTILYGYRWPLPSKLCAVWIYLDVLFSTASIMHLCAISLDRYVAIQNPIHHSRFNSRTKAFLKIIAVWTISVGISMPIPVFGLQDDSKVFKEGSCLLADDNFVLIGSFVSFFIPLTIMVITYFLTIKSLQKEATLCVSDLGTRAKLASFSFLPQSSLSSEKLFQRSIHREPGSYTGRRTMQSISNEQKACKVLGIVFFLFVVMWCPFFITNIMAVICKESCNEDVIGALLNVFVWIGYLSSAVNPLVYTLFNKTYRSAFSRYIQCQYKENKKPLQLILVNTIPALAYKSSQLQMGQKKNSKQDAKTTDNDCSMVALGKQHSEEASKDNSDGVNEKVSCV
# Description: Displacement of [125I]DOI from human recombinant 5HT2A receptor expressed in HEK293 cells after 1 hr by scintillation counting
# [24] = AUClast in Sprague-Dawley rat at 10 mg/kg, po; assay type: ADME, organism-based; set-up: time 0 - last, dose 10 mg/kg, route oral; conditions: plasma
# [25] = Total clearance in dog at 2 mg/kg, iv; assay type: ADME, organism-based, Canis lupus familiaris; set-up: dose 2 mg/kg, route intravenous; conditions: in vivo
# [26] = Cmax in Sprague-Dawley rat at 10 mg/kg, po; assay type: ADME, organism-based; set-up: dose 10 mg/kg, route oral; conditions: in vivo
# [27] = Half life in dog at 3 mg/kg, po; assay type: ADME, organism-based, Canis lupus familiaris; set-up: dose 3 mg/kg, route oral; conditions: in vivo
# [28] = Drug level in Sprague-Dawley rat brain at 0.3 mg/kg, po after 0.75 hrs; assay type: ADME, organism-based; set-up: dose 0.3 mg/kg, route oral; conditions: read-out: Drug uptake
# [29] = target: 5-hydroxytryptamine receptor 2A (Canis lupus familiaris, UniProt O46635); test: Binding affinity to dog 5HT2A receptor
# Chain of 5-hydroxytryptamine receptor 2A (Canis lupus familiaris, UniProt O46635) (O46635 whole entry): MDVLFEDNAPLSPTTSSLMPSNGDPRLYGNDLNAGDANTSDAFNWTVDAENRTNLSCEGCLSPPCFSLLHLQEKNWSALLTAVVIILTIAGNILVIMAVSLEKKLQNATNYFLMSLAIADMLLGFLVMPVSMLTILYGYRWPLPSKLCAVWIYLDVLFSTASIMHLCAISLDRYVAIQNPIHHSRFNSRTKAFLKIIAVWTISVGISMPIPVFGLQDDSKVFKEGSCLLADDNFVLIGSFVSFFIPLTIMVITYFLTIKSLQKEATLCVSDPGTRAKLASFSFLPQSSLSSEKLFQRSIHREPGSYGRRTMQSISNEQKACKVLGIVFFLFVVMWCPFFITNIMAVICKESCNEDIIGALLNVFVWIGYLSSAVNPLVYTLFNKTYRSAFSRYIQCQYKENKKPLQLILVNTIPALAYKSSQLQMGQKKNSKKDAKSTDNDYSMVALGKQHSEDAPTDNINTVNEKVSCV
# [30] = Protein binding in dog plasma; assay type: ADME, cell-free, Canis lupus familiaris; conditions: read-out: PPB (converted)
# [31] = Total clearance in mouse at 2 mg/kg, iv; assay type: ADME, organism-based; set-up: dose 2 mg/kg, route intravenous; conditions: in vivo
# [32] = Oral bioavailability in dog at 3 mg/kg relative to 2 mg/kg, iv dose; assay type: ADME, organism-based, Canis lupus familiaris; conditions: in vivo
# [33] = Total clearance in monkey at 2 mg/kg, iv; assay type: ADME, organism-based, Macaca mulatta; set-up: dose 2 mg/kg, route intravenous; conditions: rhesus monkey, in vivo
# Mus musculus [34] = test: Volume of distribution at steady state in mouse at 3 mg/kg, po; assay type: ADME, organism-based; set-up: dose 3 mg/kg, route oral; conditions: in vivo
# Rattus norvegicus [35] = test: Effect on behavioral activity in Sprague-Dawley rat assessed as increase in deep sleep at 0.1 mg/kg, po after 3 to 4 hrs; assay type: functional, organism-based; set-up: dose 0.1 mg/kg
# Rattus norvegicus [36] = test: Effect on behavioral activity in Sprague-Dawley rat assessed as increase in deep sleep at 0.1 mg/kg, po after 1 hr; assay type: functional, organism-based; set-up: dose 0.1 mg/kg
# Rattus norvegicus [37] = test: Toxicity in rat assessed as reduction in locomotor activity at 300 mg/kg by rotarod test; assay type: organism-based; set-up: dose 300 mg/kg; conditions: in vivo
# Rhesus monkey = test: Volume of distribution at steady state in monkey at 3 mg/kg, po; assay type: ADME, organism-based, Macaca mulatta; set-up: dose 3 mg/kg, route oral; conditions: in vivo
# [38] = Half life in monkey at 3 mg/kg, po; assay type: ADME, organism-based, Macaca mulatta; set-up: dose 3 mg/kg, route oral; conditions: rhesus monkey, in vivo
# [39] = Toxicity in rat assessed as maximum tolerated dose; assay type: organism-based; conditions: in vivo
# Rattus norvegicus [40] = test: Volume of distribution at steady state in Sprague-Dawley rat at 3 mg/kg, po; assay type: ADME, organism-based; set-up: dose 3 mg/kg, route oral; conditions: in vivo
# Canis familiaris [41] = test: Cardiotoxicity in telemeterized dog assessed as change in ECG parameter at 10 to 30 mg/kg; assay type: toxicity, organism-based, Canis lupus familiaris; set-up: dose 10-30 mg/kg; conditions: in vivo
# [42] = Protein binding in rat plasma; assay type: ADME, cell-free; conditions: read-out: PPB (converted)
# Canis familiaris [43] = test: Toxicity in telemeterized dog assessed as effect on hemodynamics at 10 to 30 mg/kg; assay type: organism-based, Canis lupus familiaris; set-up: dose 10-30 mg/kg; conditions: in vivo
# [44] = Half life in Sprague-Dawley rat at 3 mg/kg, po; assay type: ADME, organism-based; set-up: dose 3 mg/kg, route oral; conditions: in vivo
# Cytochrome P450 3A4 = Cytochrome P450 3A4 (Homo sapiens, UniProt P08684); test: Inhibition of CYP3A4 in human liver microsomes; assay type: ADME, Microsome
# Chain of Cytochrome P450 3A4 (P08684 whole entry): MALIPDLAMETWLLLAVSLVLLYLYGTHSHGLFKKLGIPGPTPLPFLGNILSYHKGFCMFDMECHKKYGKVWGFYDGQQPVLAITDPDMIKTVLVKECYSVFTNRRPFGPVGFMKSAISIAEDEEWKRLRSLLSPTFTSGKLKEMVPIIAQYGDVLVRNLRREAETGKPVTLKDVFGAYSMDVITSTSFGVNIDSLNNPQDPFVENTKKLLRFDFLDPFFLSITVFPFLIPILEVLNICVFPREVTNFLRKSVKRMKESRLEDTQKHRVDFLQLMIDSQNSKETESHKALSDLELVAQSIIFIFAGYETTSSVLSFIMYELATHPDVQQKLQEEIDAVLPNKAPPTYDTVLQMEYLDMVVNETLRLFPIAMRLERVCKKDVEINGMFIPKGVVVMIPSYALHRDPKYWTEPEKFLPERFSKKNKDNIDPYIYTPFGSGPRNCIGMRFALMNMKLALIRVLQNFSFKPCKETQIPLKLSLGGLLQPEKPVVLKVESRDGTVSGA
# Canis familiaris [45] = test: Volume of distribution at steady state in dog at 3 mg/kg, po; assay type: ADME, organism-based, Canis lupus familiaris; set-up: dose 3 mg/kg, route oral; conditions: in vivo
# Mus musculus [46] = test: Toxicity in mouse assessed as reduction in locomotor activity at 300 mg/kg by rotarod test; assay type: organism-based; set-up: dose 300 mg/kg; conditions: in vivo
# [47] = AUClast in mouse at 3 mg/kg, po; assay type: ADME, organism-based; set-up: time 0 - last, dose 3 mg/kg, route oral; conditions: plasma
smiles,measurement,setting,value
Cn1cc(Cl)c(C(=O)N2CCN(CC(=O)c3ccc(F)cc3)CC2)n1,Activity,Rattus norvegicus [1],Non-toxic
same,bioavailability,[2],87%
same,Activity,Rattus norvegicus [3],Non-toxic
same,IC50,[4],30000 nM
same,inhibition (INH),Cytochrome P450 1A2,Not Active
same,Activity,Rattus norvegicus [5],Dose-dependent effect
same,inhibition,Rattus norvegicus [6],Active
same,AUC(0-t),[7],872 ng·h/mL
same,inhibition (INH),Cytochrome P450 2C19,Not Active
same,bioavailability,[8],67%
same,Cmax,[9],1260 ng/mL
same,concentration at 0.75 h,[10],19.6 ng/mL
same,half-life,[11],0.5 h
same,MTD,[12],300 mg/kg
same,AUC(0-t),[13],2940 ng·h/mL
same,inhibition (INH),Cytochrome P450 2C9,Not Active
same,Ki,[14],2.4 nM
same,Cmax,[15],600 ng/mL
same,Cmax,[16],718 ng/mL
same,Kp at 0.75 h,[17],1.18
same,Kp at 0.75 h,[18],1.18
same,Ki,[19],1410 nM
same,bioavailability,[20],26%
same,Ki,[21],1.7 nM
same,clearance,[22],93.3 mL/min/kg
same,inhibition (INH),Cytochrome P450 2D6,Not Active
same,Ki,[23],3.7 nM
same,AUC(0-t),[24],1180 ng·h/mL
same,clearance,[25],15 mL/min/kg
same,Cmax,[26],1040 ng/mL
same,half-life,[27],5.2 h
same,concentration at 0.75 h,[28],23.3 ng/mL
same,Ki,[29],2.7 nM
same,fraction unbound,[30],0.39
same,clearance,[31],93.3 mL/min/kg
same,bioavailability,[32],94%
same,clearance,[33],15 mL/min/kg
same,Vdss,Mus musculus [34],1.7 L/kg
same,Activity,Rattus norvegicus [35],Active
same,Activity,Rattus norvegicus [36],Active
same,Activity,Rattus norvegicus [37],Toxic
same,Vdss,Rhesus monkey,0.4 L/kg
same,half-life,[38],0.6 h
same,MTD,[39],300 mg/kg
same,Vdss,Rattus norvegicus [40],1.7 L/kg
same,Activity,Canis familiaris [41],Non-toxic
same,fraction unbound,[42],0.49
same,Activity,Canis familiaris [43],Non-toxic
same,half-life,[44],2 h
same,inhibition (INH),Cytochrome P450 3A4,Not Active
same,Vdss,Canis familiaris [45],1.9 L/kg
same,Activity,Mus musculus [46],Toxic
same,AUC(0-t),[47],459 ng·h/mL
